Each structure is given as a SMILES string.

For this assay, the system named is acetylated tubulin (Lys40) in HeLa cells. Kind of assay: Acetylated α-tubulin measurement in vitro (immunocytochemistry). Type of assay: cell-based. To be noted: Homo sapiens, 6 hours incubation, acetylated tubulin (Lys40) by immunocytochemistry, read-out: IC50 (Tubulin deacetylation). An outline of the steps:
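HeLa cells in serum-free medium treated 6 h at 37 °C (final DMSO 0.1–0.4%), then PFA-fixed and immunostained for acetyl-Lys40 and total α-tubulin; high-content imaging.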

What is called IC50 is the concentration at which inhibition is half-maximal. For `O=C(CO)NCc1ccc(C(=O)CSc2nc3ccc(C(F)(F)F)nc3o2)s1` [Example 117, 2-hydroxy-N-((5-(2-((5-(trifluoromethyl)oxazolo[5,4-b]157yrrolid-2-yl)thio)acetyl)thiophen-2-yl)methyl)acetamide], the IC50 was not above 0.1 µM. Take `O=C(CO)NCc1ccc(C(=O)CSc2nc3ncc(C(F)(F)F)cc3o2)s1` [Example 118, 2-hydroxy-N-((5-(2-((6-(trifluoromethyl)oxazolo[4,5-b]157yrrolid-2-yl)thio)acetyl)thiophen-2-yl)methyl)acetamide]: the IC50 lay within 0.1 to 0.5 µM. The result for `Cc1nc(SCC(=O)c2ccc(CNC(=O)CO)s2)c2cc(C(F)(F)F)cnc2n1` [Example 119, 2-hydroxy-N-((5-(2-((2-methyl-6-(trifluoromethyl)pyrido[2,3-d]pyrimidin-4-yl)thio)acetyl)thiophen-2-yl)methyl)acetamide] reads not above 0.1 µM. The result for `Cc1nc(SCC(=O)c2ccc(CNC(=O)C3CC3(F)F)s2)c2cc(OC(F)(F)F)ccc2n1` (centres unmarked) [Example 120, 2,2-difluoro-N-((5-(2-((2-methyl-6-(trifluoromethoxy)quinazolin-4-yl)thio)acetyl)thiophen-2-yl)methyl)cyclopropane-1-carboxamide] reads 0.1 to 0.5 µM; that for `COc1cc2c(SCC(=O)c3ccc(CNC(=O)CO)s3)nc(C)nc2cn1` [Example 121, 2-hydroxy-N-((5-(2-((6-methoxy-2-methylpyrido[3,4-d]pyrimidin-4-yl)thio)acetyl)thiophen-2-yl)methyl)acetamide], not above 0.1 µM; that for `O=C(CSc1nc(C(F)(F)F)nc2ncccc12)c1ccc(CNS(=O)(=O)C2CC2)s1` [Example 122, N-((5-(2-((2-(trifluoromethyl)pyrido[2,3-d]pyrimidin-4-yl)thio)acetyl)thiophen-2-yl)methyl)cyclopropanesulfonamide], 0.1 to 0.5 µM. The result for `O=C(CSc1nc(C(F)(F)F)nc2ncccc12)c1ccc(CNS(=O)(=O)CC(F)(F)F)s1` [Example 123, 2,2,2-trifluoro-N-((5-(2-((2-(trifluoromethyl)pyrido[2,3-d]pyrimidin-4-yl)thio)acetyl)thiophen-2-yl)methyl)ethane-1-sulfonamide] reads 0.1 to 0.5 µM; that for `Cc1nc(SCC(=O)c2ccc(CNC(=O)CO)s2)c2cc(F)cnc2n1` [Example 124, N-((5-(2-((6-fluoro-2-methylpyrido[2,3-d]pyrimidin-4-yl)thio)acetyl)thiophen-2-yl)methyl)-2-hydroxyacetamide], not above 0.1 µM. On to `COCCn1ncc2c(SCC(=O)c3ccc(CNC(=O)CO)s3)nc(C(F)(F)F)nc21` [Example 125, 2-hydroxy-N-((5-(2-((1-(2-methoxyethyl)-6-(trifluoromethyl)-1H-pyrazolo[3,4-d]pyrimidin-4-yl)thio)acetyl)thiophen-2-yl)methyl)acetamide], for which the IC50 was not above 0.1 µM.

In the case of `Cc1nc(SCC(=O)c2ccc(CNC(=O)CO)s2)c2cc(OC(F)(F)F)ccc2n1` [Example 126, 2-hydroxy-N-((5-(2-((2-methyl-6-(trifluoromethoxy)quinazolin-4-yl)thio)acetyl)thiophen-2-yl)methyl)acetamide], the IC50 was not above 0.1 µM.

Take `CCS(=O)(=O)NCc1ccc(C(=O)CSc2nc(C(F)(F)F)nc3ncccc23)s1` [Example 127, N-((5-(2-((2-(trifluoromethyl)pyrido[2,3-d]pyrimidin-4-yl)thio)acetyl)thiophen-2-yl)methyl)ethanesulfonamide]: the IC50 was 0.1 to 0.5 µM. The result for `COc1ccc2nc(C)nc(SCC(=O)c3ccc([C@H](C)NC(=O)CO)s3)c2c1` [Example 128, (S)-2-hydroxy-N-(1-(5-(2-((6-methoxy-2-methylquinazolin-4-yl)thio)acetyl)thiophen-2-yl)ethyl)acetamide] reads 0.1 to 0.5 µM; that for `C[C@H](NC(=O)CO)c1ccc(C(=O)CSc2nc(C(F)(F)F)nc3c2cnn3C)s1` [Example 130, (S)-2-hydroxy-N-(1-(5-(2-((1-methyl-6-(trifluoromethyl)-1H-pyrazolo[3,4-d]pyrimidin-4-yl)thio)acetyl)thiophen-2-yl)ethyl)acetamide], 0.1 to 0.5 µM. Take `CN(Cc1ccc(C(=O)CSc2nc(C(F)(F)F)nc3ncccc23)s1)C(=O)CO` [Example 131, 2-hydroxy-N-methyl-N-((5-(2-((2-(trifluoromethyl)pyrido[2,3-d]pyrimidin-4-yl)thio)acetyl)thiophen-2-yl)methyl)acetamide]: the half-maximal inhibitory concentration (IC50) was 0.1 to 0.5 µM. For `COCCn1cc2c(SCC(=O)c3ccc(CNC(=O)CO)s3)nc(C(F)(F)F)nc2n1` [Example 132, 2-hydroxy-N-((5-(2-((2-(2-methoxyethyl)-6-(trifluoromethyl)-2H-pyrazolo[3,4-d]pyrimidin-4-yl)thio)acetyl)thiophen-2-yl)methyl)acetamide], the IC50 was not above 0.1 µM. Turning to `O=C(CO)NCc1ccc(C(=O)CSc2nc(C(F)(F)F)nc3c2cnn3C2CC2)s1` [Example 133, N-((5-(2-((1-cyclopropyl-6-(trifluoromethyl)-1H-pyrazolo[3,4-d]pyrimidin-4-yl)thio)acetyl)thiophen-2-yl)methyl)-2-hydroxyacetamide], the IC50 lay within 0.1 to 0.5 µM. The result for `COc1ccc2nc(C(F)(F)F)nc(SCC(=O)c3ccc(CNC(=O)C(C)(C)O)s3)c2c1` [Example 134, 2-hydroxy-N-((5-(2-((6-methoxy-2-(trifluoromethyl)quinazolin-4-yl)thio)acetyl)thiophen-2-yl)methyl)-2-methylpropanamide] reads 0.1 to 0.5 µM; that for `CCn1cc2c(SCC(=O)c3ccc(CNC(=O)CO)s3)nc(C(F)(F)F)nc2n1` [Example 135, N-((5-(2-((2-ethyl-6-(trifluoromethyl)-2H-pyrazolo[3,4-d]pyrimidin-4-yl)thio)acetyl)thiophen-2-yl)methyl)-2-hydroxyacetamide], not above 0.1 µM. The result for `CCn1ncc2c(SCC(=O)c3ccc(CNC(=O)CO)s3)nc(C(F)(F)F)nc21` [Example 136, N-((5-(2-((1-ethyl-6-(trifluoromethyl)-1H-pyrazolo[3,4-d]pyrimidin-4-yl)thio)acetyl)thiophen-2-yl)methyl)-2-hydroxyacetamide] reads 0.1 to 0.5 µM; that for `COc1ccc2nc(C)nc(SCC(=O)c3ccc(CN4CCOCC4=O)s3)c2c1` [Example 137, 4-((5-(2-((6-methoxy-2-methylquinazolin-4-yl)thio)acetyl)thiophen-2-yl)methyl)morpholin-3-one], 0.1 to 0.5 µM; that for `O=C(CSc1nc(C(F)(F)F)nc2ncccc12)c1ccc(CN2CCOCC2=O)s1` [Example 138, 4-((5-(2-((2-(trifluoromethyl)pyrido[2,3-d]pyrimidin-4-yl)thio)acetyl)thiophen-2-yl)methyl)morpholin-3-one], 0.1 to 0.5 µM. The result for `COc1ccc2nc(C(F)F)nc(SCC(=O)c3ccc(CNC(=O)CO)s3)c2c1` [Example 139, N-((5-(2-((2-(difluoromethyl)-6-methoxyquinazolin-4-yl)thio)acetyl)thiophen-2-yl)methyl)-2-hydroxyacetamide] reads 0.1 to 0.5 µM; that for `COc1cnc2nc(C)nc(SCC(=O)c3ccc(CNC(=O)CO)s3)c2c1` [Example 140, 2-hydroxy-N-((5-(2-((6-methoxy-2-methylpyrido[2,3-d]pyrimidin-4-yl)thio)acetyl)thiophen-2-yl)methyl)acetamide], 0.1 to 0.5 µM. On to `COc1ccc2nc(C)nc(SCC(=O)c3ccc(CN4CCC(O)C4=O)s3)c2c1` (centres unmarked) [Example 141, 3-hydroxy-1-((5-(2-((6-methoxy-2-methylquinazolin-4-yl)thio)acetyl)thiophen-2-yl)methyl)pyrrolidin-2-one], for which the IC50 lay in the range of 0.1 to 0.5 µM. The result for `Cc1nc(SCC(=O)c2ccc(CNC(=O)CO)s2)c2cc(Cl)cc(F)c2n1` [Example 142, N-((5-(2-((6-chloro-8-fluoro-2-methylquinazolin-4-yl)thio)acetyl)thiophen-2-yl)methyl)-2-hydroxyacetamide] reads not above 0.1 µM; that for `COc1cccc2nc(C)nc(SCC(=O)c3ccc(CNC(=O)CO)s3)c12` [Example 143, 2-hydroxy-N-((5-(2-((5-methoxy-2-methylquinazolin-4-yl)thio)acetyl)thiophen-2-yl)methyl)acetamide], 0.1 to 0.5 µM. The result for `CCOc1ccc2nc(C)nc(SCC(=O)c3ccc(CNC(=O)CO)s3)c2c1` [Example 144, N-((5-(2-((6-ethoxy-2-methylquinazolin-4-yl)thio)acetyl)thiophen-2-yl)methyl)-2-hydroxyacetamide] reads not above 0.1 µM; that for `CCOc1cc2c(SCC(=O)c3ccc(CNC(=O)CO)s3)nc(C)nc2cn1` [Example 145, N-((5-(2-((6-ethoxy-2-methylpyrido[3,4-d]pyrimidin-4-yl)thio)acetyl)thiophen-2-yl)methyl)-2-hydroxyacetamide], not above 0.1 µM. Take `Cc1nc(SCC(=O)c2ccc(CNC(=O)CO)s2)c2c(F)c(Cl)ccc2n1` [Example 146, N-((5-(2-((6-chloro-5-fluoro-2-methylquinazolin-4-yl)thio)acetyl)thiophen-2-yl)methyl)-2-hydroxyacetamide]: the IC50 fell in the range of 0.1 to 0.5 µM. As to `COc1cc(C(F)(F)F)cc2c(SCC(=O)c3ccc(CNC(=O)CO)s3)nc(C)nc12` [Example 148, 2-hydroxy-N-((5-(2-((8-methoxy-2-methyl-6-(trifluoromethyl)quinazolin-4-yl)thio)acetyl)thiophen-2-yl)methyl)acetamide], the IC50 was not above 0.1 µM. Turning to `Cc1nc(SCC(=O)c2ccc(CNC(=O)CO)s2)c2cc(N(C)C)ncc2n1` [Example 149, N-((5-(2-((6-(dimethylamino)-2-methylpyrido[3,4-d]pyrimidin-4-yl)thio)acetyl)thiophen-2-yl)methyl)-2-hydroxyacetamide], the IC50 was not above 0.1 µM.

Consider `Cc1nc(SCC(=O)c2ccc(CNC(=O)CO)s2)c2cc(C(F)(F)F)cc(N(C)C)c2n1` [Example 150, N-((5-(2-((8-(dimethylamino)-2-methyl-6-(trifluoromethyl)quinazolin-4-yl)thio)acetyl)thiophen-2-yl)methyl)-2-hydroxyacetamide], for which the IC50 lay within 0.1 to 0.5 µM.
